Key:
Format in all cases: functional
Settings in all cases: 96 h, read-out: GI
Bipolaris sorokiniana [1] = assay: Growth inhibition of Bipolaris sorokiniana at 50 ug/ml after 4 days by poisoned food technique
Bipolaris sorokiniana [2] = assay: Growth inhibition of Bipolaris sorokiniana at 500 ug/ml after 4 days by poisoned food technique
Alternaria brassicae [3] = assay: Growth inhibition of Alternaria brassicae at 50 ug/ml after 4 days by poisoned food technique
Alternaria brassicae [4] = assay: Growth inhibition of Alternaria brassicae at 500 ug/ml after 4 days by poisoned food technique
[5] = tested on: Fusarium oxysporum f. sp. cucumerinum; assay: Growth inhibition of Fusarium oxysporum f. sp. cucumerinum at 50 ug/ml after 4 days by poisoned food technique
[6] = tested on: Fusarium oxysporum f. sp. cucumerinum; assay: Growth inhibition of Fusarium oxysporum f. sp. cucumerinum at 500 ug/ml after 4 days by poisoned food technique
[7] = tested on: Fusarium oxysporum f. sp. vasinfectum; assay: Growth inhibition of Fusarium oxysporum f. sp. vasinfectum at 50 ug/ml after 4 days by poisoned food technique
[8] = tested on: Fusarium oxysporum f. sp. vasinfectum; assay: Growth inhibition of Fusarium oxysporum f. sp. vasinfectum at 500 ug/ml after 4 days by poisoned food technique
Pyricularia oryzae [9] = assay: Growth inhibition of Magnaporthe oryzae at 50 ug/ml after 4 days by poisoned food technique
Pyricularia oryzae [10] = assay: Growth inhibition of Magnaporthe oryzae at 500 ug/ml after 4 days by poisoned food technique
Alternaria alternata [11] = assay: Growth inhibition of Alternaria alternata at 50 ug/ml after 4 days by poisoned food technique
Fusarium graminearum [12] = assay: Growth inhibition of Fusarium graminearum at 500 ug/ml after 4 days by poisoned food technique
Alternaria alternata [13] = assay: Growth inhibition of Alternaria alternata at 500 ug/ml after 4 days by poisoned food technique
Fusarium graminearum [14] = assay: Growth inhibition of Fusarium graminearum at 50 ug/ml after 4 days by poisoned food technique

`O=[N+]([O-])c1ccc(Oc2ccccc2)cc1` showed an inhibition of growth at 50 µg/mL (Bipolaris sorokiniana [1]) of 87.2%, an inhibition of growth at 500 µg/mL (Bipolaris sorokiniana [2]) of 73% and an inhibition of growth at 50 µg/mL (Alternaria brassicae [3]) of 55.5%. It also gave an inhibition of growth at 500 µg/mL (Alternaria brassicae [4]) of 76%, an inhibition of growth at 50 µg/mL [5] of 61.2% and an inhibition of growth at 500 µg/mL [6] of 72.9%. It also gave an inhibition of growth at 50 µg/mL [7] of 81.8%, an inhibition of growth at 500 µg/mL [8] of 83.4% and an inhibition of growth at 50 µg/mL (Pyricularia oryzae [9]) of 48%. It also gave an inhibition of growth at 500 µg/mL (Pyricularia oryzae [10]) of 81.9%, an inhibition of growth at 50 µg/mL (Alternaria alternata [11]) of 66.8% and an inhibition of growth at 500 µg/mL (Fusarium graminearum [12]) of 87.4%. The inhibition of growth at 500 µg/mL (Alternaria alternata [13]) was 83.8% and the inhibition of growth at 50 µg/mL (Fusarium graminearum [14]) was 71.6%.

`Cc1cccc(Oc2ccccc2[N+](=O)[O-])c1` gave an inhibition of growth at 50 µg/mL (Bipolaris sorokiniana [1]) of 85.5%, an inhibition of growth at 500 µg/mL (Bipolaris sorokiniana [2]) of 58.5% and an inhibition of growth at 50 µg/mL (Alternaria brassicae [3]) of 58.9%. The inhibition of growth at 500 µg/mL (Alternaria brassicae [4]) was 73.9%, the inhibition of growth at 50 µg/mL [5] was 50.2% and the inhibition of growth at 500 µg/mL [6] was 46%. For the same compound, the inhibition of growth at 50 µg/mL [7] was 53.2%, the inhibition of growth at 500 µg/mL [8] was 46.7% and the inhibition of growth at 50 µg/mL (Pyricularia oryzae [9]) was 56.3%. For the same compound, the inhibition of growth at 500 µg/mL (Pyricularia oryzae [10]) was 82.8%, the inhibition of growth at 50 µg/mL (Alternaria alternata [11]) was 49% and the inhibition of growth at 500 µg/mL (Fusarium graminearum [12]) was 70.1%. It also gave an inhibition of growth at 500 µg/mL (Alternaria alternata [13]) of 74.5% and an inhibition of growth at 50 µg/mL (Fusarium graminearum [14]) of 38.8%.

`CC(C)(C)c1ccc(Oc2ccc([N+](=O)[O-])cc2)cc1` showed an inhibition of growth at 50 µg/mL (Bipolaris sorokiniana [1]) of 21.6%, an inhibition of growth at 500 µg/mL (Bipolaris sorokiniana [2]) of 23.5% and an inhibition of growth at 50 µg/mL (Alternaria brassicae [3]) of 32%. The inhibition of growth at 500 µg/mL (Alternaria brassicae [4]) was 32%, the inhibition of growth at 50 µg/mL [5] was 3.6% and the inhibition of growth at 500 µg/mL [6] was 10.3%. It also gave an inhibition of growth at 50 µg/mL [7] of 14.1%, an inhibition of growth at 500 µg/mL [8] of 67.7% and an inhibition of growth at 50 µg/mL (Pyricularia oryzae [9]) of 32%. For the same compound, the inhibition of growth at 500 µg/mL (Pyricularia oryzae [10]) was 40.4%, the inhibition of growth at 50 µg/mL (Alternaria alternata [11]) was 25.5% and the inhibition of growth at 500 µg/mL (Fusarium graminearum [12]) was 56%. The inhibition of growth at 500 µg/mL (Alternaria alternata [13]) was 27.7% and the inhibition of growth at 50 µg/mL (Fusarium graminearum [14]) was 55.6%.

`O=[N+]([O-])c1ccc(Oc2ccccc2Cl)cc1` gave an inhibition of growth at 50 µg/mL (Bipolaris sorokiniana [1]) of 89.5%, an inhibition of growth at 500 µg/mL (Bipolaris sorokiniana [2]) of 66% and an inhibition of growth at 50 µg/mL (Alternaria brassicae [3]) of 36%. It also gave an inhibition of growth at 500 µg/mL (Alternaria brassicae [4]) of 65.3%, an inhibition of growth at 50 µg/mL [5] of 38.8% and an inhibition of growth at 500 µg/mL [6] of 75.5%. For the same compound, the inhibition of growth at 50 µg/mL [7] was 47.5%, the inhibition of growth at 500 µg/mL [8] was 55.6% and the inhibition of growth at 50 µg/mL (Pyricularia oryzae [9]) was 47.8%. It also gave an inhibition of growth at 500 µg/mL (Pyricularia oryzae [10]) of 77.5%, an inhibition of growth at 50 µg/mL (Alternaria alternata [11]) of 60.4% and an inhibition of growth at 500 µg/mL (Fusarium graminearum [12]) of 92.8%. The inhibition of growth at 500 µg/mL (Alternaria alternata [13]) was 81.9% and the inhibition of growth at 50 µg/mL (Fusarium graminearum [14]) was 79.5%.

Work on `O=[N+]([O-])c1ccc(Oc2ccccc2[N+](=O)[O-])cc1` [2,4'-OXYBIS(NITROBENZENE)] yielded an inhibition of growth at 50 µg/mL (Bipolaris sorokiniana [1]) of 42.2%, an inhibition of growth at 500 µg/mL (Bipolaris sorokiniana [2]) of 35.3% and an inhibition of growth at 50 µg/mL (Alternaria brassicae [3]) of 8.5%. The inhibition of growth at 500 µg/mL (Alternaria brassicae [4]) was 49.6%, the inhibition of growth at 50 µg/mL [5] was 9.3% and the inhibition of growth at 500 µg/mL [6] was 33.3%. The inhibition of growth at 50 µg/mL [7] was 19.3%, the inhibition of growth at 500 µg/mL [8] was 42.7% and the inhibition of growth at 50 µg/mL (Pyricularia oryzae [9]) was 31.4%. It also gave an inhibition of growth at 500 µg/mL (Pyricularia oryzae [10]) of 47.1%, an inhibition of growth at 50 µg/mL (Alternaria alternata [11]) of 49.3% and an inhibition of growth at 500 µg/mL (Fusarium graminearum [12]) of 68.7%. The inhibition of growth at 500 µg/mL (Alternaria alternata [13]) was 56.3% and the inhibition of growth at 50 µg/mL (Fusarium graminearum [14]) was 66.2%.

`CC(C)(C)c1ccc(Oc2ccccc2C#N)cc1` was tested, and the inhibition of growth at 50 µg/mL (Bipolaris sorokiniana [1]) was 42.8%, the inhibition of growth at 500 µg/mL (Bipolaris sorokiniana [2]) was 38.4% and the inhibition of growth at 50 µg/mL (Alternaria brassicae [3]) was 43.5%. It also gave an inhibition of growth at 500 µg/mL (Alternaria brassicae [4]) of 53.3%, an inhibition of growth at 50 µg/mL [5] of 20.4% and an inhibition of growth at 500 µg/mL [6] of 33.3%. The inhibition of growth at 50 µg/mL [7] was 20.1%, the inhibition of growth at 500 µg/mL [8] was 44.3% and the inhibition of growth at 50 µg/mL (Pyricularia oryzae [9]) was 43.7%. For the same compound, the inhibition of growth at 500 µg/mL (Pyricularia oryzae [10]) was 43.1%, the inhibition of growth at 50 µg/mL (Alternaria alternata [11]) was 35.8% and the inhibition of growth at 500 µg/mL (Fusarium graminearum [12]) was 56%. For the same compound, the inhibition of growth at 500 µg/mL (Alternaria alternata [13]) was 51% and the inhibition of growth at 50 µg/mL (Fusarium graminearum [14]) was 38.3%.

`Cc1cccc(Oc2ccc([N+](=O)[O-])cc2)c1` gave an inhibition of growth at 50 µg/mL (Bipolaris sorokiniana [1]) of 44.4%, an inhibition of growth at 500 µg/mL (Bipolaris sorokiniana [2]) of 32% and an inhibition of growth at 50 µg/mL (Alternaria brassicae [3]) of 37.3%. For the same compound, the inhibition of growth at 500 µg/mL (Alternaria brassicae [4]) was 52.8%, the inhibition of growth at 50 µg/mL [5] was 57.9% and the inhibition of growth at 500 µg/mL [6] was 64.6%. For the same compound, the inhibition of growth at 50 µg/mL [7] was 65.1%, the inhibition of growth at 500 µg/mL [8] was 74.3% and the inhibition of growth at 50 µg/mL (Pyricularia oryzae [9]) was 39.2%. It also gave an inhibition of growth at 500 µg/mL (Pyricularia oryzae [10]) of 60.3%, an inhibition of growth at 50 µg/mL (Alternaria alternata [11]) of 48.4% and an inhibition of growth at 500 µg/mL (Fusarium graminearum [12]) of 92.4%. It also gave an inhibition of growth at 500 µg/mL (Alternaria alternata [13]) of 61.2% and an inhibition of growth at 50 µg/mL (Fusarium graminearum [14]) of 62.8%.

Compound `O=[N+]([O-])c1ccc(Oc2ccc([N+](=O)[O-])cc2)cc1` [4,4'-OXYBIS(NITROBENZENE)] has an inhibition of growth at 50 µg/mL (Bipolaris sorokiniana [1]) of 20.4%, an inhibition of growth at 500 µg/mL (Bipolaris sorokiniana [2]) of 16.7% and an inhibition of growth at 50 µg/mL (Alternaria brassicae [3]) of 36.8%. It also gave an inhibition of growth at 500 µg/mL (Alternaria brassicae [4]) of 75.2%, an inhibition of growth at 50 µg/mL [5] of 38% and an inhibition of growth at 500 µg/mL [6] of 50.9%. For the same compound, the inhibition of growth at 50 µg/mL [7] was 57.6%, the inhibition of growth at 500 µg/mL [8] was 63.6% and the inhibition of growth at 50 µg/mL (Pyricularia oryzae [9]) was 1.9%. The inhibition of growth at 500 µg/mL (Pyricularia oryzae [10]) was 36.6%, the inhibition of growth at 50 µg/mL (Alternaria alternata [11]) was 15% and the inhibition of growth at 500 µg/mL (Fusarium graminearum [12]) was 3.1%. The inhibition of growth at 500 µg/mL (Alternaria alternata [13]) was 19.8% and the inhibition of growth at 50 µg/mL (Fusarium graminearum [14]) was 13.6%.
